Tested on: MM3MG-HER2Δ16 cells
Experiment: In vitro ADCP and ADCC by bone marrow derived macrophages (BMDM)
Assay type: cell-based, mouse
Conditions: Concanamycin A 1 μM in BMDM co-culture
Protocol: MM3MG-HER2Δ16 cells were labeled with Brilliant Violet 450 Dye, and co-cultured with BMDM (3:1 ratio) with control or anti-HER2 antibodies (10 μg/mL). ADCP rates were measured by percentage of BMDM uptake of labeled tumor cells (CD45+and BV450+), and Antibody-dependent-cellular-cytotoxicity (ADCC) rates were measured by percentage of dying free tumor cells (CD45− and LIVE/DEAD stain+). […] All data represent mean ±SEM, **P<0.01, ***P<0.001, ****P<0.0001.
ADCP and ADCC by macrophages—Bone marrow derived macrophages (BMDM) were generated from mouse tibia, differentiated for 10 days with 50 ng/mL mouse MCSF (Peprotech 315-02). Briefly, 50 million bone marrow cells were plated in 10 cm^2 tissue culture dish with MCSF on day 0. Unattached cells in supernatant were removed and fresh media+MC SF were added on day 3, day 6 and day 9. BMDM were used for ADCP/ADCC assays on day 10. Tumor cells MM3MG-HER2416 were labeled with Brilliant Violet 450 Dye (BD 562158) according to manufacturer's protocol, and incubated with control or anti-HER2 antibodies (10 μg/mL) in 96-wells (100,000 cells/well) for 30 minutes at 37° C. BMDM were then added for co-culture at a 3:1 ratio of Tumor vs BMDM. After 2 hours co-culture, phagocytosis of BV450-labeled tumor cells by BMDM were analyzed by FACS with CD45-APC staining and Live-death (Red) staining. […]

Structure (SMILES): C/C=C/[C@H]1O[C@@](O)([C@@H](C)[C@H](O)[C@H](C)[C@H]2OC(=O)/C(OC)=C/C(C)=C/[C@@H](C)[C@@H](O)[C@@H](CC)[C@@H](O)[C@H](C)C/C(C)=C/C=C/[C@@H]2OC)C[C@@H](O[C@H]2C[C@@H](O)[C@H](OC(N)=O)[C@@H](C)O2)[C@@H]1C [Concanamycin A]
- effect of ADCC inhibitor on HER2 mAb activities: had no effect on HER2 mAb activities

Reference: patent publication US20220049015A1, “COMPOSITIONS AND METHODS FOR THE TREATMENT AND/OR PREVENTION OF HER2+ CANCERS” (DUKE UNIVERSITY, priority 2018, published 2022)
